Results from patent US6555821B1, “Method for analysis of expired gas” (priority 1999, dated 2003).
Values joined by “and” are separate entries in the source; they are usually repeats but may differ in a detail not shown here. Equal values may be shown once.

What was measured:
[1] = Bubbling tests: alcohol concentration in gas phase over alcohol-water solution, measured by low resolution FT-IR; format: physicochemical; details: for Concentration of ethanol in gas phase / Concentration of methanol in gas phase: 21.0 ± 1.0° C., 1 atm, mean ± SD of 10 spectra
[2] = as above; format: physicochemical; details: for Concentration of methanol in gas phase: 21.0 ± 1.0° C., 1 atm, mean ± SD of 10 spectra
Method: Vaporous ethanol and methanol mixtures in water were made by bubbling nitrogen gas through a corresponding liquid mixture. The purpose of measuring mixtures of ethanol and methanol was to test the applicability of the instrument for determining more than one alcohol in a gas mixture containing a large amount of water vapor like human exhaled breath. Particularly, the measurements were performed with a large ethanol:methanol ratio in order to investigate whether the instrument is able to determine a low concentration of methanol in the presence of a large amount of ethanol.

[3] = 25° C., 1 atm; Hine and Mookerjee 1975, Davidovits et al. 1995; cited from earlier work

CCO [ethanol]
Concentration of ethanol in gas phase ([1]; 3.17 W-% ethanol in water with methanol in liquid 0.102 w-%): 295 ± 2 ppm | Concentration of ethanol in gas phase ([1]; 3.17 W-% ethanol in water with methanol in liquid 0.159 w-%): 314 ± 4 ppm | Concentration of ethanol in gas phase ([1]; 3.17 W-% ethanol in water with methanol in liquid 0.222 w-%): 298 ± 3 ppm | Concentration of ethanol in gas phase ([1]; 3.17 W-% ethanol in water with methanol in liquid 0.317 w-%): 304 ± 2 ppm | Concentration of ethanol in gas phase ([1]; 3.17 W-% ethanol in water with methanol in liquid 0.95 w-%): 296 ± 4 ppm | Concentration of ethanol in gas phase ([1]; 3.17 W-% ethanol in water with methanol in liquid 1.59 w-%): 303 ± 5 ppm | Concentration of ethanol in gas phase ([1]; 3.17 W-% ethanol in water with methanol in liquid 3.18 w-%): 300 ± 2 ppm | Concentration of ethanol in gas phase ([1]; 3.17 W-% ethanol in water with methanol in liquid 6.36 w-%): 293 ± 3 ppm | Concentration of ethanol in gas phase ([1]; 3.17 W-% ethanol in water with methanol in liquid 15.9 w-%): 289 ± 1 ppm | ethanol in the gas phase (FIG. 1 spectrum) ([1]; 3.17 w-‰ ethanol and 0.159 w-‰ methanol in liquid phase (water), 21±1° C.): 310 ppm | Concentration of ethanol in gas phase ([1]; ethanol in liquid 0.202 w-%, water): 19.2 ± 0.1 ppm | Concentration of ethanol in gas phase ([1]; ethanol in liquid 0.5 w-%, water): 45.7 ± 0.3 ppm | Concentration of ethanol in gas phase ([1]; ethanol in liquid 1 w-%, water): 94 ± 1 ppm | Concentration of ethanol in gas phase ([1]; ethanol in liquid 1.58 w-%, water): 148 ± 2 ppm | Concentration of ethanol in gas phase ([1]; ethanol in liquid 3.16 w-%, water): 305 ± 4 ppm | Concentration of ethanol in gas phase ([1]; ethanol in liquid 6.33 w-%, water): 587 ± 4 ppm | Concentration of ethanol in gas phase ([1]; ethanol in liquid 9.49 w-%, water): 907 ± 6 ppm | Concentration of ethanol in gas phase ([1]; ethanol in liquid 15.8 w-%, water): 1466 ± 11 ppm | Concentration of ethanol in gas phase ([1]; ethanol in liquid 31.6 w-%, water): 2907 ± 4 ppm

CO [methanol]
methanol in the gas phase (FIG. 1 spectrum) ([2]; 0.159 w-‰ methanol and 3.17 w-‰ ethanol in liquid phase (water), 21±1° C.): 22.4 ppm | Concentration of methanol in gas phase ([2]; methanol in liquid 0.222 w-% in mixture of water and 3.17 W-% ethanol): 30.2 ± 0.5 ppm | Concentration of methanol in gas phase ([2]; methanol in liquid 0.95 w-% in mixture of water and 3.17 W-% ethanol): 120 ± 2 ppm | Concentration of methanol in gas phase ([2]; methanol in liquid 1.59 w-% in mixture of water and 3.17 W-% ethanol): 201 ± 3 ppm | Concentration of methanol in gas phase ([2]; methanol in liquid 3.18 w-% in mixture of water and 3.17 W-% ethanol): 402 ± 2 ppm | Concentration of methanol in gas phase ([2]; methanol in liquid 6.36 w-% in mixture of water and 3.17 W-% ethanol): 806 ± 7 ppm | Concentration of methanol in gas phase ([1]; methanol in liquid 0.101 w-%, water): 13 ± 0.2 ppm | Concentration of methanol in gas phase ([1]; methanol in liquid 0.102 w-% in mixture of water and 3.17 W-% ethanol): 14.2 ± 0.4 ppm | Concentration of methanol in gas phase ([1]; methanol in liquid 0.159 w-% in mixture of water and 3.17 W-% ethanol): 22.2 ± 0.4 ppm | Concentration of methanol in gas phase ([1]; methanol in liquid 0.203 w-%, water): 26.9 ± 0.1 ppm | Concentration of methanol in gas phase ([1]; methanol in liquid 0.301 w-%, water): 41.6 ± 0.3 ppm | Concentration of methanol in gas phase ([1]; methanol in liquid 0.317 w-% in mixture of water and 3.17 W-% ethanol): 43.4 ± 0.4 ppm | Concentration of methanol in gas phase ([1]; methanol in liquid 0.501 w-%, water): 61 ± 1 ppm | Concentration of methanol in gas phase ([1]; methanol in liquid 1.59 w-%, water): 204 ± 2 ppm | Concentration of methanol in gas phase ([1]; methanol in liquid 3.17 w-%, water): 402 ± 2 ppm | Concentration of methanol in gas phase ([1]; methanol in liquid 6.34 w-%, water): 805 ± 4 ppm | Concentration of methanol in gas phase ([1]; methanol in liquid 9.51 w-%, water): 1207 ± 5 ppm | Concentration of methanol in gas phase ([1]; methanol in liquid 15.9 w-% in mixture of water and 3.17 W-% ethanol): 2006 ± 3 ppm | Concentration of methanol in gas phase ([1]; methanol in liquid 15.9 w-%, water): 2031 ± 14 ppm | Concentration of methanol in gas phase ([1]; methanol in liquid 31.7 w-%, water): 4067 ± 28 ppm | water-air partition coefficient (literature Henry's law constants) [3]: 5260 and 5334
